SMILES strings stand for the structures. Entries after “also recorded” stand apart in the source; their conditions may differ.

The subject of data set [1] is supragingival biofilm. As to the kind of experiment: 70/30 supragingival biofilm model, biofilm decontamination with antimicrobial solutions (Experiments 1 and 2). The format is cell-based. The note with it: for biofilm microbiota after 24 h (CFU, FIG. 8) / immediate effect on the biofilm microbiota (CFU, FIG. 8): hydrogen peroxide 0.1% and 1%; for CFU 24 hours after cleaning agent treatment (summary, FIG. 3b) / CFU immediately after cleaning agent treatment (summary, FIG. 3a): supragingival model, experiments 1 and 2; for immediate effect on the biofilm microbiota (CFU, FIG. 8): immediately after application, sodium hypochlorite 0.1%, 1% and 3%, detection limit <2.0E1; for CFU immediately after cleaning agent treatment (summary, FIG. 3a): immediate; for lasting biofilm inhibiting effect, recovery of the microorganisms after 24 h (CFU, FIG. 7) / immediate decontaminating effect compared to the saline control (CFU, FIG. 7): Experiment 1, chlorhexidine 0.2%, hydrogen peroxide 3%; for immediate decontaminating effect compared to the saline control (CFU, FIG. 7): after dip, sodium hypochlorite 3%. From the text: Evaluation of biofilm decontamination with various antimicrobial solutions Tested in a 70/30 supragingival biofilm model For a detailed description of the biofilm model used in this experiment, see e.g. Guggenheim et al., 2004, 2001 a; and Shapiro et al., 2002 and Guggenheim et al., 2009. […]

Data set [2] concerns subgingival biofilm. As to the kind of experiment: subgingival biofilm model on titanium discs, antimicrobial solutions alone, total CFU (Experiment 3). Format: cell-based. The following applies: for reduction of the microbiota on the biofilms compared with the saline controls immediately after exposure (total CFU, FIG. 13): immediately after 1 min exposure, NaCIO 0.1% and 1%. An excerpt: (§1) Evaluation of subgingival biofilm decontamination with various antimicrobial solutions tested in a subgingival biofilm model For a detailed description of the biofilm model used in this experiment, see e.g. Guggenheim et al., 2004, 2001 a; and Shapiro et al., 2002 and Guggenheim et al., 2009. OMZ 278, Prevotella intermedia OMZ 493, Veilonella dispar OMZ 598, Fusobacterium nucleatum OMZ 607, Streptococcus oralis OMZ 661, Treponema denticola OMZ 698, Campylobacter rectus OMZ 745, Actinomyces oris OMZ 871, Streptococcus anginosus OMZ 925, Porphyromonas gingivalis OMZ 1047, Tannerella forsythia [table] The purpose of the present biofilm experiment was to assess the efficacy of various antimicrobial solutions on a subgingival microbiota associated with periodontitis and implantitis. The antimicrobial effect was evaluated immediately and 24 h after a 1 min exposure to the test solutions to biofilms grown on titanium discs.

Data set [3] relates to individual members of the biofilm consortium. As to the kind of experiment: subgingival biofilm model, antimicrobial solutions alone, effect on individual species (Experiment 3). The format is cell-based. The note with it: NaCIO 0.1% and 1%; for P. intermedia and P. gingivalis in the following 24 h (re-growth): 24 h after treatment; for immediate effect on individual species (FIGS. 9, 10 and 11): all species, immediately after 1 min exposure.
Excerpt: as §1

Data set [4] concerns skin. The following applies: 2% solution; cited from earlier work.
For data set [5] the following is noted: cited from earlier work.

As to `[Na+].[O-]Cl` [0.1% NaCIO, Sodium hypochlorite], in data set [1] (Experiment 2, 24 h after dip), the “biofilm microbiota after 24 h (CFU, FIG. 8)” value is “in part recovered”. In addition, the “CFU 24 hours after cleaning agent treatment (summary, FIG. 3b)” value (“CFU 24 hours” for short) in data set [1] is recorded as “bacterial regrowth”.

As for `[H]/N=C(\N/C(=N/[H])NCCCCCCNC(=N)NC(=N)Nc1ccc(Cl)cc1)Nc1ccc(Cl)cc1` [0.2% CHX, Chlorhexidine], the “reduction of the biofilm microbiota after 24 h” value in data set [1] (Experiment 2, 24 h after dip) is listed as around 6 log steps. For the same compound, in data set [1] (Experiment 2), the “immediate effect on the biofilm microbiota (CFU, FIG. 8)” value (from here on “immediate effect … (CFU, FIG. 8)”) is on record as “low immediate effect”. In data set [1], the “CFU 24 hours” value is “clear CFU reduction” and the “CFU immediately after cleaning agent treatment (summary, FIG. 3a)” value (“CFU immediately” below) was “no significant immediate CFU influence”.

On to `[H]/N=C(\N/C(=N/[H])NCCCCCCNC(=N)NC(=N)Nc1ccc(Cl)cc1)Nc1ccc(Cl)cc1` [1% CHX, Chlorhexidine], for which the “biofilm microbiota after 24 h (CFU, FIG. 8)” value in data set [1] (Experiment 2, 24 h after dip) is reported as “eradicating totally the biofilm microbiota”. In data set [1], the “CFU 24 hours” value was “clear CFU reduction” and the “CFU immediately” value is listed as “no significant immediate CFU influence”. In addition, the “reduction of the microbiota on the biofilms compared with the saline controls immediately after exposure (total CFU, FIG. 13)” value (“reduction of the microbiota” below) in data set [2] (Experiment 3) is given as “only a limited effect”. In addition, in data set [3], the “P. intermedia and P. gingivalis in the following 24 h (re-growth)” value is “eradication”; the “immediate effect on individual species (FIGS. 9, 10 and 11)” value (shortened to “immediate effect on individual species”) is “only a limited effect”.

Take `[H]/N=C(\N/C(=N/[H])NCCCCCCNC(=N)NC(=N)Nc1ccc(Cl)cc1)Nc1ccc(Cl)cc1` [2% chlorhexidine, chlorhexidine]: in data set [4], the skin irritation result was “irritating to the skin”.

Regarding `OO` [3% H2O2, hydrogen peroxide], in data set [2] (Experiment 3), the “reduction of the microbiota” value is on record as “only a limited effect”. Besides, in data set [3], the “immediate effect on individual species” value was “only a limited effect”.

Consider `OCl` [3.0% sodium hypochlorite, Sodium hypochlorite], for which, in data set [1] (Experiment 2, 24 h after dip), the “biofilm microbiota after 24 h (CFU, FIG. 8)” value is “no detectable microorganisms”. Further, the “immediate effect … (CFU, FIG. 8)” value in data set [1] (Experiment 2) is “no detectable microorganisms”.

On to `N=C(NCCCCCCNC(=N)NC(=N)Nc1ccc(Cl)cc1)NC(=N)Nc1ccc(Cl)cc1.O=C(O)[C@H](O)[C@@H](O)[C@H](O)[C@H](O)CO.O=C(O)[C@H](O)[C@@H](O)[C@H](O)[C@H](O)CO` [CHX gluconate, Chlorhexidine gluconate], for which the solubility in water result in data set [5] was “water-soluble”.

Consider `[H]/N=C(\N/C(=N/[H])NCCCCCCNC(=N)NC(=N)Nc1ccc(Cl)cc1)Nc1ccc(Cl)cc1` [CHX, Chlorhexidine], for which the “lasting biofilm inhibiting effect, recovery of the microorganisms after 24 h (CFU, FIG. 7)” value in data set [1] (24 h after dip) is “strong lasting effect”. For the same compound, in data set [1], the “immediate decontaminating effect compared to the saline control (CFU, FIG. 7)” value was “very modest”. In data set [2] (Experiment 3, 24 h after 1 min exposure), the “strong sustained effect on the total CFU after 24 h / biofilm re-growth” value is “not observed”.

For the compound `OO` [H2O2, hydrogen peroxide], the “lasting biofilm inhibiting effect, recovery of the microorganisms after 24 h (CFU, FIG. 7)” value in data set [1] (24 h after dip) is recorded as “no or minute lasting biofilm inhibiting action”. Besides, in data set [1], the “immediate decontaminating effect compared to the saline control (CFU, FIG. 7)” value is on record as “very modest”. In addition, in data set [1] (Experiment 2, 24 h after dip), the “biofilm microbiota after 24 h (CFU, FIG. 8)” value is “re-established to the level of the controls”. Besides, the “immediate effect … (CFU, FIG. 8)” value in data set [1] (Experiment 2) is reported as “low decontaminating action”.

`OCl` [NaCIO, Sodium hypochlorite]: in data set [1], the “immediate decontaminating effect compared to the saline control (CFU, FIG. 7)” value is recorded as “very impressive”; the “CFU 24 hours” value is listed as “no sustained effect on its own”; the “CFU immediately” value is on record as “reduces CFU counts the most; also recorded: strong immediate CFU reduction”. Also, the “immediate effect … (CFU, FIG. 8)” value in data set [1] (Experiment 2, listed as sodium hypochlorite) was “below the detection level”. In addition, the “reduction of the microbiota” value in data set [2] (Experiment 3) is on record as “near or to the detection limit”. Moreover, the “CFU immediately” value in data set [2] (subgingival model, experiment 3, immediate) is reported as “strong immediate CFU reduction”. In data set [3], the “P. intermedia and P. gingivalis in the following 24 h (re-growth)” value is recorded as “eradication”; the “immediate effect on individual species” value is “near or to the detection limit”.

The values are drawn from patent US20200375864A1, “PERIODONTAL DISEASE TREATMENT” (STRAUMANN HOLDING AG, priority 2013, published 2020).
